ChEMBL document CHEMBL4699433, “Rational design, synthesis and testing of novel tricyclic topoisomerase inhibitors for the treatment of bacterial infections part 2” (RSC Med Chem, 2020)
Values after ≈ are worked out from the molar mass of the structure shown. Values belong to the compound of their own block, whether it stands above or below them.

Assays:
Streptococcus pneumoniae = assay: Antibacterial activity against Streptococcus pneumoniae ATCC 49619 assessed as reduction in bacterial growth by CLSI based broth microdilution method; type: functional
Staphylococcus aureus [1] = assay: Antibacterial activity against LZD-resistant, methicillin-resistant Staphylococcus aureus NRS127 assessed as reduction in bacterial growth by CLSI based broth microdilution method; type: functional
Cytochrome P450 2C19 = Cytochrome P450 2C19 (Homo sapiens, UniProt P33261); assay: Inhibition of CYP2C19 (unknown origin); type: ADME
Staphylococcus aureus [2] = assay: Antibacterial activity against Staphylococcus aureus ATCC 43300 assessed as reduction in bacterial growth by CLSI based broth microdilution method; type: functional
Neisseria gonorrhoeae [3] = assay: Antibacterial activity against wild type Neisseria gonorrhoeae ATCC 700825 assessed as reduction in bacterial growth by agar dilution method; type: functional
[4] = Efflux ratio of permeability in human Caco2 cells; type: ADME, cell-based; details: Caco-2
Topoisomerase IV = Topoisomerase IV (Staphylococcus aureus, UniProt P0C1S7+P0C1U9); assay: Inhibition of Staphylococcus aureus topoisomerase IV using kDNA as substrate incubated for 30 mins by ethidium bromide staining based gel electrophoresis analysis; type: protein-complex assay
Staphylococcus aureus [5] = assay: Antibacterial activity against wild type methicillin-sensitive Staphylococcus aureus ATCC 29213 assessed as reduction in bacterial growth by CLSI based broth microdilution method; type: functional
Staphylococcus aureus [6] = assay: Antibacterial activity against AMG-, QAC-, TMP- resistant methicillin- resistant Staphylococcus aureus NRS106 assessed as reduction in bacterial growth by CLSI based broth microdilution method; type: functional
Neisseria gonorrhoeae [7] = assay: Antibacterial activity against wild-type Neisseria gonorrhoeae ATCC 49226 assessed as reduction in bacterial growth by agar dilution method; type: functional
[8] = target: Sodium channel protein type 5 subunit alpha (Homo sapiens, UniProt Q14524); assay: Inhibition of Nav1.5 (unknown origin) by patch clamp assay
[9] = Kinetic solubility of compound at pH 7.4; type: physicochemical; details: buffer, read-out: Kinetic_solubility
[10] = system: Staphylococcus epidermidis; assay: Antibacterial activity against wild type Staphylococcus epidermidis ATCC 12228 assessed as reduction in bacterial growth by CLSI based broth microdilution method; type: functional
Staphylococcus aureus [11] = assay: Antibacterial activity against FQ-resistant, methicillin-resistant Staphylococcus aureus NRS482 assessed as reduction in bacterial growth by CLSI based broth microdilution method; type: functional
Streptococcus pyogenes = assay: Antibacterial activity against wild type Streptococcus pyogenes ATCC 19615 assessed as reduction in bacterial growth by CLSI based broth microdilution method; type: functional
Staphylococcus aureus [12] = assay: Antibacterial activity against COL-resistant, methicillin-resistant Staphylococcus aureus NRS100 assessed as reduction in bacterial growth by CLSI based broth microdilution method; type: functional
Staphylococcus aureus [13] = assay: Antibacterial activity against AMG- and TET-resistant (Mu50) GyrA (S84L,E409L), GrlA (S80F), methicillin-resistant Staphylococcus aureus NRS1 assessed as reduction in bacterial growth by CLSI based broth microdilution method; type: functional
Cytochrome P450 2D6 = Cytochrome P450 2D6 (Homo sapiens, UniProt P10635); assay: Inhibition of CYP2D6 (unknown origin); type: ADME
[14] = target: Voltage-dependent L-type calcium channel subunit alpha-1C (Homo sapiens, UniProt Q13936); assay: Inhibition of Cav1.2 (unknown origin) by patch clamp assay
[15] = target: Voltage-gated inwardly rectifying potassium channel KCNH2 (Homo sapiens, UniProt Q12809); assay: Inhibition of human ERG by patch clamp assay
Cytochrome P450 3A4 = Cytochrome P450 3A4 (Homo sapiens, UniProt P08684); assay: Inhibition of CYP3A4 (unknown origin); type: ADME
Staphylococcus aureus [16] = assay: Antibacterial activity against FQ-resistant methicillin-resistant Staphylococcus aureus NRS74 assessed as reduction in bacterial growth by CLSI based broth microdilution method; type: functional
[17] = Intrinsic clearance in human hepatocytes assessed per 10^6 cells; type: ADME, cell-based, Hepatocyte; details: read-out: CLH
Staphylococcus aureus [18] = assay: Antibacterial activity against Staphylococcus aureus VRS1 assessed as reduction in bacterial growth by CLSI based broth microdilution method; type: functional
Haemophilus influenzae = assay: Antibacterial activity against Haemophilus influenzae ATCC 49247 assessed as reduction in bacterial growth by CLSI based broth microdilution method; type: functional
Enterococcus faecium [19] = assay: Antibacterial activity against VAN-resistant Enterococcus faecium ATCC 700221 assessed as reduction in bacterial growth by CLSI based broth microdilution method; type: functional
[20] = system: Staphylococcus epidermidis; assay: Antibacterial activity against MRSE AMG-, ERY-resistant Staphylococcus epidermidis NRS101 assessed as reduction in bacterial growth by CLSI based broth microdilution method; type: functional
TK6 [21] = assay: Genotoxicity in human TK6 cells at 200 uM in absence of S9 fraction by BlueScreen assay; type: toxicity, cell-based; details: tk6, 200 µM
DNA gyrase = DNA gyrase (Staphylococcus aureus, UniProt P0A0K8+P20831); assay: Inhibition of Staphylococcus aureus DNA gyrase using relaxed pBR322 as substrate incubated for 30 mins by ethidium bromide staining based gel electrophoresis analysis; type: protein-complex assay
Staphylococcus aureus [22] = assay: Antibacterial activity against VAN resistant methicillin- resistant Staphylococcus aureus VRS8 assessed as reduction in bacterial growth by CLSI based broth microdilution method; type: functional
TK6 [23] = assay: Genotoxicity in human TK6 cells at 200 uM in presence of S9 fraction by BlueScreen assay; type: toxicity, cell-based; details: s9, 200 µM
[24] = Apparent permeability in human Caco2 cells; type: ADME, cell-based; details: Caco-2
Cytochrome P450 2C9 = Cytochrome P450 2C9 (Homo sapiens, UniProt P11712); assay: Inhibition of CYP2C9 (unknown origin); type: ADME
Cytochrome P450 1A2 = Cytochrome P450 1A2 (Homo sapiens, UniProt P05177); assay: Inhibition of CYP1A2 (unknown origin); type: ADME
Staphylococcus aureus [25] = assay: Antibacterial activity against Staphylococcus aureus clinical isolate assessed as reduction in bacterial growth by CLSI based broth microdilution method; type: functional
Staphylococcus aureus [26] = assay: Antibacterial activity against CA-MRSA ERY-, TET-resistant, FQ Int resistant (USA300 LAC) Staphylococcus aureus NRS384 assessed as reduction in bacterial growth by CLSI based broth microdilution method; type: functional
Staphylococcus aureus [27] = assay: Antibacterial activity against methicillin-resistant Staphylococcus aureus N315 NRS70 assessed as reduction in bacterial growth by CLSI based broth microdilution method; type: functional
Escherichia coli = assay: Antibacterial activity against Escherichia coli ATCC 25922 assessed as reduction in bacterial growth by CLSI based broth microdilution method; type: functional
[28] = Protein binding in human plasma assessed as free fraction; type: ADME, cell-free
Enterococcus faecium [29] = assay: Antibacterial activity against wild type Enterococcus faecium ATCC 19434 assessed as reduction in bacterial growth by CLSI based broth microdilution method; type: functional
Staphylococcus aureus [30] = assay: Antibacterial activity against AMG-resistant, methicillin-resistant Staphylococcus aureus NRS108 assessed as reduction in bacterial growth by CLSI based broth microdilution method; type: functional
Staphylococcus aureus [31] = assay: Antibacterial activity against MUP resistant (RN4220 + pGO400), methicillin-resistant Staphylococcus aureus NRS107 assessed as reduction in bacterial growth by CLSI based broth microdilution method; type: functional
Staphylococcus aureus [32] = assay: Antibacterial activity against LZD-resistant methicillin-resistant Staphylococcus aureus NRS271 assessed as reduction in bacterial growth by CLSI based broth microdilution method; type: functional
[33] = Cytotoxicity against human HepG2 cells; type: cell-based
Enterococcus faecalis = assay: Antibacterial activity against wild type Enterococcus faecalis ATCC 29212 assessed as reduction in bacterial growth by CLSI based broth microdilution method; type: functional
[34] = Thermodynamic solubility of the compound; type: physicochemical; details: read-out: Therm_solubility

Sequence of Cytochrome P450 1A2 (P05177 whole entry): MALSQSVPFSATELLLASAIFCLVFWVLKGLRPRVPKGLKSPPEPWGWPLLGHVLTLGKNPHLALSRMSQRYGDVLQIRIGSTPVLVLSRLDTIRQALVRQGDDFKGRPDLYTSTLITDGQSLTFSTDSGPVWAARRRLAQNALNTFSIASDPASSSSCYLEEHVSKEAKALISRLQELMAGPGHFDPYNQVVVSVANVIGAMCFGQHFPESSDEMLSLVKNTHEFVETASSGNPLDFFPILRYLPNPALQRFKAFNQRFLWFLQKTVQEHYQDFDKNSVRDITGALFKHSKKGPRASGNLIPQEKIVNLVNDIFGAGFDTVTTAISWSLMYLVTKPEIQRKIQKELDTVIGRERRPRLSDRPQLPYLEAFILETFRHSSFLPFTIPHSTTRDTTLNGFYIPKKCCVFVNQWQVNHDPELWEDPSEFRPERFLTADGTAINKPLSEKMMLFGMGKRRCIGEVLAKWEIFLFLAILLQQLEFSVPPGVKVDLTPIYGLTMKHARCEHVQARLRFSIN
Sequence of Sodium channel protein type 5 subunit alpha (Q14524 whole entry): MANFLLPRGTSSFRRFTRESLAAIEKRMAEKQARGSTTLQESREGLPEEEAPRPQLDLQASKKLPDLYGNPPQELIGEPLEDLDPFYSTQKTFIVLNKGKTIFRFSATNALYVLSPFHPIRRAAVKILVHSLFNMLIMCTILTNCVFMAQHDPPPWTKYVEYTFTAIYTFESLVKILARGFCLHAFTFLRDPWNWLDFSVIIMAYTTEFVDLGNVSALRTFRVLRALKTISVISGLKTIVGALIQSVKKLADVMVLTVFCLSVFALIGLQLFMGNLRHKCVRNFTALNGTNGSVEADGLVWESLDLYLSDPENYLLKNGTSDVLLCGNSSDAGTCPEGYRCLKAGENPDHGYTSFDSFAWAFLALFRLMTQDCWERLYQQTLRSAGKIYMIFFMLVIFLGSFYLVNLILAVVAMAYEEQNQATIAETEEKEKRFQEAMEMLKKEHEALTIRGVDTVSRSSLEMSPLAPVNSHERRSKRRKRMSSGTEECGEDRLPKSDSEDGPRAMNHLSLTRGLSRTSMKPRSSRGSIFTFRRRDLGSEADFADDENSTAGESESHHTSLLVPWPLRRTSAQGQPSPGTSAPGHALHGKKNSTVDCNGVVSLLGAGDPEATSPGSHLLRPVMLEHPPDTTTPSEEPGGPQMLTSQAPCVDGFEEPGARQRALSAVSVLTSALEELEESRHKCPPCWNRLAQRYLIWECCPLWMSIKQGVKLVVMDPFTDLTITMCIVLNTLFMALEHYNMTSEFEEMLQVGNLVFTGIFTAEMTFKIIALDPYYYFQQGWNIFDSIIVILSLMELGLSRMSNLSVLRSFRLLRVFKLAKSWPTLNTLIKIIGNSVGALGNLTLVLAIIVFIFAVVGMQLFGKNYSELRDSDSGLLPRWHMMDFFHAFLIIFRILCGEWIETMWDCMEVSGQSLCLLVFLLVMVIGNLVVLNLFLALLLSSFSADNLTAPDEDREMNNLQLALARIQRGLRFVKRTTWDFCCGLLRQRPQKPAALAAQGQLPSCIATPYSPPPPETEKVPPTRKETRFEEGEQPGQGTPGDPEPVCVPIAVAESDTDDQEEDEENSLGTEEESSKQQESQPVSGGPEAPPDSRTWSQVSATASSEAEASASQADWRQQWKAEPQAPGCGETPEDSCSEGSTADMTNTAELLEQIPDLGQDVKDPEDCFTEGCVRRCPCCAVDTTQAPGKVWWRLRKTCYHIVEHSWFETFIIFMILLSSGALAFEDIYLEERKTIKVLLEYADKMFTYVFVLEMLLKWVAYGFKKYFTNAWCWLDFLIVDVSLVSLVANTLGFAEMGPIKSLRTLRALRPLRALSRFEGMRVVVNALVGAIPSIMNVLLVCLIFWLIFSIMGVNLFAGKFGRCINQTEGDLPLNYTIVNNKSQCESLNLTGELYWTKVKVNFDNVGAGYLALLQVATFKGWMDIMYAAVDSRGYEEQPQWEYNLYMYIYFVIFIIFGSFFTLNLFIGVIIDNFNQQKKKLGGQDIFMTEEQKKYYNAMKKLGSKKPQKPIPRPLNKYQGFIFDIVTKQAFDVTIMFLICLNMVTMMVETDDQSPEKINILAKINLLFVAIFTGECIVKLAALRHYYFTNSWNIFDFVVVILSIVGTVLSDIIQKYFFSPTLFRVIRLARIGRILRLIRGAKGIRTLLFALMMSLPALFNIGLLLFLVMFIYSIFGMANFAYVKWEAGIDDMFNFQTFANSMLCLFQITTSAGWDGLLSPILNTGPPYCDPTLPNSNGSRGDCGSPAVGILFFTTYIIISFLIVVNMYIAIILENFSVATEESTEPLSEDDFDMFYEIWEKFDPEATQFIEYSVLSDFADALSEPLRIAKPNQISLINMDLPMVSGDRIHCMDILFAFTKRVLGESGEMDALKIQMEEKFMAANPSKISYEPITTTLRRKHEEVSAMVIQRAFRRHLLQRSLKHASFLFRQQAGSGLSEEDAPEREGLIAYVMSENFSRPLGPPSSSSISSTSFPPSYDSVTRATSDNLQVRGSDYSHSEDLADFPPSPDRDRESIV
Sequence of Voltage-gated inwardly rectifying potassium channel KCNH2 (Q12809 whole entry): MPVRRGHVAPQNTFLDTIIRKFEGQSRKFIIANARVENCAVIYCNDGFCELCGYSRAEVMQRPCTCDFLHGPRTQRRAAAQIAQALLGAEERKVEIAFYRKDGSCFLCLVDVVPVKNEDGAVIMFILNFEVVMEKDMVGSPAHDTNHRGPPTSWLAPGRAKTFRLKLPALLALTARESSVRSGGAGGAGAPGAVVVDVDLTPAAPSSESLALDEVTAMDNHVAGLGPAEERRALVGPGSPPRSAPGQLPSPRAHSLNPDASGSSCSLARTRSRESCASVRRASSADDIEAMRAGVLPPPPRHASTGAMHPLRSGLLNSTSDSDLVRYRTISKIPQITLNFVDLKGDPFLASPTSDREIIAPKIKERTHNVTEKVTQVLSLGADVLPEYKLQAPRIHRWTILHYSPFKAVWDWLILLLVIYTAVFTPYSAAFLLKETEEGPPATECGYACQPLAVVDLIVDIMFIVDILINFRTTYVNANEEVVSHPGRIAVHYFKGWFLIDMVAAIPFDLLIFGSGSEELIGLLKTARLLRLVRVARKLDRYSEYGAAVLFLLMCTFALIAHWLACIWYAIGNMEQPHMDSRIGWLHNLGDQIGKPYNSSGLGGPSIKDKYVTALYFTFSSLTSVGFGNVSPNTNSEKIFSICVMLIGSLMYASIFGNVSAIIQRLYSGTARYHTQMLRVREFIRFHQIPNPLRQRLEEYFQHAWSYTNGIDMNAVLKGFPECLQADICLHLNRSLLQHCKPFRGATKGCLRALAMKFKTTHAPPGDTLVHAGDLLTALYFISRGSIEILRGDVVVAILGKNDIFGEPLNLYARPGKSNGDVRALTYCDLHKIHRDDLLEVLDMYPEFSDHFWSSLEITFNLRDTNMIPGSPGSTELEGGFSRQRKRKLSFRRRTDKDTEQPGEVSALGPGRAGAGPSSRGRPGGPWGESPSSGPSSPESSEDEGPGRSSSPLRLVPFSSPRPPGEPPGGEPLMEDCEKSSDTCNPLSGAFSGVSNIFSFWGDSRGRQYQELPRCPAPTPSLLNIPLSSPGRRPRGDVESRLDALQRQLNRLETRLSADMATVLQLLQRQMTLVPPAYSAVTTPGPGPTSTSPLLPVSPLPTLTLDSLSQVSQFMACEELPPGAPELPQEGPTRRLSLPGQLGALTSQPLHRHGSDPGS
Sequence of Cytochrome P450 3A4 (P08684 whole entry): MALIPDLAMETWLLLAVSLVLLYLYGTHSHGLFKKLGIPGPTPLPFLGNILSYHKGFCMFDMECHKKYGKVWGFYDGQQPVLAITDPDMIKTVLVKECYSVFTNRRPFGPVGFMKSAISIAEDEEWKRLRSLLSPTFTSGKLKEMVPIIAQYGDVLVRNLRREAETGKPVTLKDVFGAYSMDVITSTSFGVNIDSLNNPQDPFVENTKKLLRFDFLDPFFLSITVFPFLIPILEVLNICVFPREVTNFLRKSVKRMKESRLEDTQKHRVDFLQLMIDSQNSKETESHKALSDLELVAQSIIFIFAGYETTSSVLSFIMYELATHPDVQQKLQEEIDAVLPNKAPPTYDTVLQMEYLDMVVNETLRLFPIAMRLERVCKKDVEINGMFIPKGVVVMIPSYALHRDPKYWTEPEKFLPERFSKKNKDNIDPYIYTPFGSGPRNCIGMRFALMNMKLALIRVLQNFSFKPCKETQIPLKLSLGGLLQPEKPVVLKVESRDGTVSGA
Sequence of Cytochrome P450 2C9 (P11712 whole entry): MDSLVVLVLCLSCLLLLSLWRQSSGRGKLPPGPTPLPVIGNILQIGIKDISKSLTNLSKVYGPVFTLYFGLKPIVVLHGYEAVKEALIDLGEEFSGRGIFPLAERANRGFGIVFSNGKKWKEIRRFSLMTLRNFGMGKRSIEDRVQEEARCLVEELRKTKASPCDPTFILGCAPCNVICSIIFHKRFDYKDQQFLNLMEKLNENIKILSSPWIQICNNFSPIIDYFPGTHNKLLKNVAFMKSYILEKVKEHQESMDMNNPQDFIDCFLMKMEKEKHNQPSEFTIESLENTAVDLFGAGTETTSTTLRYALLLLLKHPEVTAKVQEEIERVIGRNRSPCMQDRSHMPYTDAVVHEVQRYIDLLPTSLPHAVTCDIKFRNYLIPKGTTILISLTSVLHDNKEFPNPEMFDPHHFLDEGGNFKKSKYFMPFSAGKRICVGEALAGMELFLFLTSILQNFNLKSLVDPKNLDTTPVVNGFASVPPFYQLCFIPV

MIC (Streptococcus pneumoniae): 0.25 µg/mL (≈ 0.617 µM) | MIC (Staphylococcus aureus [5]): 0.25 µg/mL (≈ 0.617 µM) | MIC (Haemophilus influenzae): 1 µg/mL (≈ 2.47 µM) | MIC (Escherichia coli): 1 µg/mL (≈ 2.47 µM) | solubility thermodynamic [34]: 1180 µg/mL (≈ 2920 µM)
SMILES: CNCC1CCN(c2c(F)cc3c4oc(C)nc4c(=O)n(C4CC4)c3c2Cl)C1 (stereo not drawn)

MIC (Streptococcus pneumoniae): 0.5 µg/mL (≈ 1.28 µM) | MIC (Staphylococcus aureus [5]): 0.25 µg/mL (≈ 0.64 µM) | MIC (Haemophilus influenzae): 1 µg/mL (≈ 2.56 µM) | MIC (Escherichia coli): 0.5 µg/mL (≈ 1.28 µM) | solubility thermodynamic [34]: 922 µg/mL (≈ 2360 µM)
SMILES: Cc1nc2c(=O)n(C3CC3)c3c(Cl)c(N4CCC(N)CC4)c(F)cc3c2o1

Second part, the compound before the results:

SMILES: Cc1nc2c(=O)n(C3CC3)c3c(Cl)c(N4CC[C@@H]([C@H](C)N)C4)c(F)cc3c2o1
MIC (Streptococcus pneumoniae): 0.015 µg/mL (≈ 0.037 µM) | MIC (Staphylococcus aureus [1]): 0.5 µg/mL (≈ 1.23 µM) | IC50 (Cytochrome P450 2C19): 30 µM | MIC (Staphylococcus aureus [2]): 0.12 µg/mL (≈ 0.296 µM) | MIC (Neisseria gonorrhoeae [3]): 0.03 µg/mL (≈ 0.0741 µM) | efflux ratio [4]: 2.2 | IC50 (Topoisomerase IV): 6.1 µM | MIC (Staphylococcus aureus [5]): 0.06 µg/mL (≈ 0.148 µM) | MIC (Staphylococcus aureus [6]): 0.12 µg/mL (≈ 0.296 µM) | MIC (Neisseria gonorrhoeae [7]): 0.12 µg/mL (≈ 0.296 µM) | IC50 [8]: 21.5 µM | solubility kinetic [9]: > 100 µM | MIC [10]: 0.06 µg/mL (≈ 0.148 µM) | MIC (Staphylococcus aureus [11]): 0.12 µg/mL (≈ 0.296 µM) | MIC (Streptococcus pyogenes): 0.015 µg/mL (≈ 0.037 µM) | MIC (Staphylococcus aureus [12]): 0.12 µg/mL (≈ 0.296 µM) | MIC (Staphylococcus aureus [13]): 0.25 µg/mL (≈ 0.617 µM) | IC50 (Cytochrome P450 2D6): 30 µM | IC50 [14]: 93.6 µM | IC50 [15]: 28.7 µM | IC50 (Cytochrome P450 3A4): 17.5 µM | MIC (Staphylococcus aureus [16]): 0.12 µg/mL (≈ 0.296 µM) | hepatocyte CLint [17]: 3 µL/min/1e6 cells | MIC (Staphylococcus aureus [18]): 0.5 µg/mL (≈ 1.23 µM) | MIC (Haemophilus influenzae): 1 µg/mL (≈ 2.47 µM) | MIC (Enterococcus faecium [19]): 8 µg/mL (≈ 19.8 µM) | MIC [20]: 1 µg/mL (≈ 2.47 µM) | Activity (TK6 [21]): Non-Toxic | IC50 (DNA gyrase): 1.82 µM | MIC (Staphylococcus aureus [22]): 0.5 µg/mL (≈ 1.23 µM) | Activity (TK6 [23]): Toxic | Papp [24]: 20.7 ×10⁻⁶ cm/s | IC50 (Cytochrome P450 2C9): 16.4 µM | IC50 (Cytochrome P450 1A2): 30 µM | MIC90 (Staphylococcus aureus [25]): 0.5 µg/mL (≈ 1.23 µM) | MIC (Staphylococcus aureus [26]): 0.12 µg/mL (≈ 0.296 µM) | MIC (Staphylococcus aureus [27]): 0.06 µg/mL (≈ 0.148 µM) | MIC (Escherichia coli): 0.5 µg/mL (≈ 1.23 µM) | fraction unbound [28]: 0.244 | MIC (Enterococcus faecium [29]): 8 µg/mL (≈ 19.8 µM) | MIC (Staphylococcus aureus [30]): 0.12 µg/mL (≈ 0.296 µM) | MIC (Staphylococcus aureus [31]): 0.12 µg/mL | MIC (Staphylococcus aureus [32]): 0.5 µg/mL (≈ 1.23 µM) | CC50 [33]: 32 µg/mL (≈ 79 µM) | MIC (Enterococcus faecalis): 0.12 µg/mL (≈ 0.296 µM)

SMILES: Cc1nc2c(=O)n3c4c(c(N5CCC(CN)C5)c(F)cc4c2o1)OC[C@H]3C (stereo partly drawn)
MIC (Streptococcus pneumoniae): 128 µg/mL (≈ 344 µM) | MIC (Staphylococcus aureus [5]): 64 µg/mL (≈ 172 µM) | MIC (Haemophilus influenzae): 128 µg/mL (≈ 344 µM) | MIC (Escherichia coli): 64 µg/mL (≈ 172 µM)

SMILES: Cc1nc2c(=O)n(C3CC3)c3c(Cl)c(N4CCNCC4)c(F)cc3c2o1
MIC (Streptococcus pneumoniae): 4 µg/mL (≈ 10.6 µM) | MIC (Staphylococcus aureus [5]): 0.25 µg/mL (≈ 0.663 µM) | MIC (Haemophilus influenzae): 0.5 µg/mL (≈ 1.33 µM) | MIC (Escherichia coli): 0.5 µg/mL (≈ 1.33 µM) | solubility thermodynamic [34]: 885 µg/mL (≈ 2350 µM)

SMILES: Cc1nc2c(=O)n3c4c(c(N5CCC(CN)C5)c(F)cc4c2o1)OC[C@@H]3C (stereo partly drawn)
MIC (Streptococcus pneumoniae): 0.5 µg/mL (≈ 1.34 µM) | MIC (Staphylococcus aureus [5]): 0.5 µg/mL (≈ 1.34 µM) | MIC (Haemophilus influenzae): 4 µg/mL (≈ 10.7 µM) | MIC (Escherichia coli): 2 µg/mL (≈ 5.37 µM)
